Measured values: the NIST ThermoML archive (doi:10.1016/j.tca.2015.06.017)
Numbers after ± are expanded uncertainties.

Assay: xn = mol fraction of the nth substance listed
Settings: Liquid, Vibrating tube method

CCC(C)Cl (configuration not stated) [2-chlorobutane] + CCCCCCC
mass density [kg/m3]
Settings | 313.15 K | 323.15 K
100 kPa, x2 = 0.0524 | – | 825.09 ± 0.24
100 kPa, x2 = 0.1018 | – | 813.02 ± 0.24
100 kPa, x2 = 0.1968 | – | 791.28 ± 0.24
100 kPa, x2 = 0.3006 | – | 769.26 ± 0.24
100 kPa, x2 = 0.4029 | – | 749.24 ± 0.24
100 kPa, x2 = 0.5017 | – | 731.3 ± 0.25
100 kPa, x2 = 0.6008 | – | 714.64 ± 0.25
100 kPa, x2 = 0.7023 | – | 698.73 ± 0.25
100 kPa, x2 = 0.7977 | – | 684.8 ± 0.25
100 kPa, x2 = 0.8986 | – | 671.19 ± 0.25
100 kPa, x2 = 0.952 | – | 664.27 ± 0.25
2000 kPa, x2 = 0.0524 | – | 827.83 ± 0.25
2000 kPa, x2 = 0.1018 | – | 815.67 ± 0.25
2000 kPa, x2 = 0.1968 | – | 793.94 ± 0.26
2000 kPa, x2 = 0.3006 | – | 771.89 ± 0.26
2000 kPa, x2 = 0.4029 | – | 751.76 ± 0.26
2000 kPa, x2 = 0.5017 | – | 733.83 ± 0.26
2000 kPa, x2 = 0.6008 | – | 717.08 ± 0.27
2000 kPa, x2 = 0.7023 | – | 701.07 ± 0.27
2000 kPa, x2 = 0.7977 | – | 687.1 ± 0.27
2000 kPa, x2 = 0.8986 | – | 673.45 ± 0.27
2000 kPa, x2 = 0.952 | – | 666.5 ± 0.28
5000 kPa, x2 = 0.0524 | – | 831.91 ± 0.27
5000 kPa, x2 = 0.1018 | – | 819.82 ± 0.27
5000 kPa, x2 = 0.1968 | – | 797.9 ± 0.28
5000 kPa, x2 = 0.3006 | – | 775.73 ± 0.28
5000 kPa, x2 = 0.4029 | – | 755.62 ± 0.29
5000 kPa, x2 = 0.5017 | – | 737.6 ± 0.29
5000 kPa, x2 = 0.6008 | – | 720.78 ± 0.3
5000 kPa, x2 = 0.7023 | – | 704.73 ± 0.3
5000 kPa, x2 = 0.7977 | – | 690.71 ± 0.31
5000 kPa, x2 = 0.8986 | – | 677.02 ± 0.31
5000 kPa, x2 = 0.952 | – | 670.04 ± 0.31
7000 kPa, x2 = 0.0524 | – | 834.54 ± 0.28
7000 kPa, x2 = 0.1018 | – | 822.46 ± 0.29
7000 kPa, x2 = 0.1968 | – | 800.49 ± 0.29
7000 kPa, x2 = 0.3006 | – | 778.37 ± 0.3
7000 kPa, x2 = 0.4029 | – | 758.11 ± 0.31
7000 kPa, x2 = 0.5017 | – | 740.05 ± 0.31
7000 kPa, x2 = 0.6008 | – | 723.19 ± 0.32
7000 kPa, x2 = 0.7023 | – | 707.1 ± 0.32
7000 kPa, x2 = 0.7977 | – | 693.06 ± 0.33
7000 kPa, x2 = 0.8986 | – | 679.34 ± 0.34
7000 kPa, x2 = 0.952 | – | 672.34 ± 0.34
10000 kPa, x2 = 0.0524 | – | 838.27 ± 0.3
10000 kPa, x2 = 0.1018 | – | 826.08 ± 0.31
10000 kPa, x2 = 0.1968 | – | 804.11 ± 0.31
10000 kPa, x2 = 0.3006 | – | 781.87 ± 0.32
10000 kPa, x2 = 0.4029 | – | 761.62 ± 0.33
10000 kPa, x2 = 0.5017 | – | 743.56 ± 0.34
10000 kPa, x2 = 0.6008 | – | 726.61 ± 0.35
10000 kPa, x2 = 0.7023 | – | 710.43 ± 0.36
10000 kPa, x2 = 0.7977 | – | 696.28 ± 0.36
10000 kPa, x2 = 0.8986 | – | 682.48 ± 0.37
10000 kPa, x2 = 0.952 | – | 675.45 ± 0.37
20000 kPa, x2 = 0.0524 | – | 849.8 ± 0.35
20000 kPa, x2 = 0.1018 | – | 837.53 ± 0.36
20000 kPa, x2 = 0.1968 | – | 815.4 ± 0.38
20000 kPa, x2 = 0.3006 | – | 792.88 ± 0.4
20000 kPa, x2 = 0.4029 | – | 772.5 ± 0.42
20000 kPa, x2 = 0.5017 | 762.72 ± 0.42 | 754.11 ± 0.43
20000 kPa, x2 = 0.6008 | 745.36 ± 0.44 | 737 ± 0.45
20000 kPa, x2 = 0.7023 | 728.79 ± 0.45 | 720.73 ± 0.46
20000 kPa, x2 = 0.7977 | 714.29 ± 0.47 | 706.35 ± 0.47
20000 kPa, x2 = 0.8986 | 699.96 ± 0.48 | 692.38 ± 0.48
20000 kPa, x2 = 0.952 | 692.74 ± 0.48 | 685.27 ± 0.49
30000 kPa, x2 = 0.0524 | 869.48 ± 0.39 | 860.04 ± 0.4
30000 kPa, x2 = 0.1018 | 856.99 ± 0.4 | 847.72 ± 0.41
30000 kPa, x2 = 0.1968 | 834.35 ± 0.43 | 825.47 ± 0.44
30000 kPa, x2 = 0.3006 | 811.43 ± 0.46 | 802.73 ± 0.47
30000 kPa, x2 = 0.4029 | 790.51 ± 0.48 | 782.02 ± 0.49
30000 kPa, x2 = 0.5017 | 771.71 ± 0.5 | 763.53 ± 0.51
30000 kPa, x2 = 0.6008 | 754.16 ± 0.53 | 746.23 ± 0.54
30000 kPa, x2 = 0.7023 | 737.41 ± 0.55 | 729.67 ± 0.56
30000 kPa, x2 = 0.7977 | 722.74 ± 0.56 | 715.26 ± 0.57
30000 kPa, x2 = 0.8986 | 708.23 ± 0.58 | 700.97 ± 0.59
30000 kPa, x2 = 0.952 | 700.93 ± 0.59 | 693.82 ± 0.6
40000 kPa, x2 = 0.0524 | 878.27 ± 0.42 | 869.34 ± 0.44
40000 kPa, x2 = 0.1018 | 865.7 ± 0.44 | 856.96 ± 0.46
40000 kPa, x2 = 0.1968 | 842.91 ± 0.48 | 834.4 ± 0.49
40000 kPa, x2 = 0.3006 | 819.81 ± 0.51 | 811.6 ± 0.53
40000 kPa, x2 = 0.4029 | 798.72 ± 0.55 | 790.72 ± 0.56
40000 kPa, x2 = 0.5017 | 779.77 ± 0.58 | 772.1 ± 0.59
40000 kPa, x2 = 0.6008 | 762.09 ± 0.61 | 754.63 ± 0.62
40000 kPa, x2 = 0.7023 | 745.16 ± 0.64 | 737.89 ± 0.65
40000 kPa, x2 = 0.7977 | 730.38 ± 0.66 | 723.24 ± 0.67
40000 kPa, x2 = 0.8986 | 715.74 ± 0.68 | 708.82 ± 0.69
40000 kPa, x2 = 0.952 | 708.38 ± 0.7 | 701.63 ± 0.71
50000 kPa, x2 = 0.0524 | 886.46 ± 0.45 | 877.82 ± 0.47
50000 kPa, x2 = 0.1018 | 873.81 ± 0.48 | 865.47 ± 0.49
50000 kPa, x2 = 0.1968 | 850.85 ± 0.52 | 842.71 ± 0.54
50000 kPa, x2 = 0.3006 | 827.58 ± 0.57 | 819.72 ± 0.58
50000 kPa, x2 = 0.4029 | 806.37 ± 0.61 | 798.76 ± 0.63
50000 kPa, x2 = 0.5017 | 787.33 ± 0.65 | 779.9 ± 0.66
50000 kPa, x2 = 0.6008 | 769.48 ± 0.68 | 762.28 ± 0.7
50000 kPa, x2 = 0.7023 | 752.43 ± 0.72 | 745.43 ± 0.73
50000 kPa, x2 = 0.7977 | 737.47 ± 0.75 | 730.63 ± 0.76
50000 kPa, x2 = 0.8986 | 722.77 ± 0.78 | 716.08 ± 0.79
50000 kPa, x2 = 0.952 | 715.34 ± 0.79 | 708.79 ± 0.81
60000 kPa, x2 = 0.0524 | 894.03 ± 0.48 | 885.83 ± 0.5
60000 kPa, x2 = 0.1018 | 881.29 ± 0.51 | 873.29 ± 0.53
60000 kPa, x2 = 0.1968 | 858.17 ± 0.56 | 850.37 ± 0.58
60000 kPa, x2 = 0.3006 | 834.83 ± 0.62 | 827.3 ± 0.64
60000 kPa, x2 = 0.4029 | 813.47 ± 0.67 | 806.2 ± 0.69
60000 kPa, x2 = 0.5017 | 794.34 ± 0.71 | 787.21 ± 0.73
60000 kPa, x2 = 0.6008 | 776.43 ± 0.76 | 769.46 ± 0.77
60000 kPa, x2 = 0.7023 | 759.35 ± 0.8 | 752.51 ± 0.81
60000 kPa, x2 = 0.7977 | 744.21 ± 0.83 | 737.59 ± 0.85
60000 kPa, x2 = 0.8986 | 729.29 ± 0.87 | 722.89 ± 0.89
60000 kPa, x2 = 0.952 | 721.82 ± 0.89 | 715.52 ± 0.9
65000 kPa, x2 = 0.0524 | 897.67 ± 0.49 | 889.59 ± 0.51
65000 kPa, x2 = 0.1018 | 884.92 ± 0.52 | 877.02 ± 0.54
65000 kPa, x2 = 0.1968 | 861.74 ± 0.58 | 854.06 ± 0.6
65000 kPa, x2 = 0.3006 | 838.38 ± 0.64 | 830.95 ± 0.66
65000 kPa, x2 = 0.4029 | 816.9 ± 0.7 | 809.85 ± 0.71
65000 kPa, x2 = 0.5017 | 797.7 ± 0.75 | 790.81 ± 0.76
65000 kPa, x2 = 0.6008 | 779.7 ± 0.79 | 772.98 ± 0.81
65000 kPa, x2 = 0.7023 | 762.47 ± 0.84 | 755.89 ± 0.85
65000 kPa, x2 = 0.7977 | 747.31 ± 0.88 | 740.95 ± 0.89
65000 kPa, x2 = 0.8986 | 732.32 ± 0.92 | 726.04 ± 0.93
65000 kPa, x2 = 0.952 | 724.77 ± 0.93 | 718.69 ± 0.95
